# Experimental data: PMC9967013, “A Theranostic Small-Molecule Prodrug Conjugate for Neuroendocrine Prostate Cancer” (Pharmaceutics, 2023)
# pEC50: −log10 of the molar value. Read-outs that look alike come from different tables or passages of the source.
# Columns and labels:
# PC3 cells = experiment: Cell viability assay (MTT); assay type: cell-based, human; conditions: OD 570 nm, read-out: EC50 (cytotoxicity)
# Procedure: PC3 cells (3000–5000 cells/well) were seeded onto a 96-well plate. After one day, freshly prepared RPMI media containing different concentrations (0, 1, 5, 10 µM; n = 5) of FTY720 (Selleckchem, Houston, TX, USA) or compound 10 (0, 1, 3, 15, 30 µM; n = 5) were added to the cells, and the mixtures were incubated for 48 or 72 h. The relative number of viable cells was determined by an assay using 3-(4,5-dimethylthiazol-2-yl) -2,5-diphenyltetrazolium bromide (MTT) (Sigma-Aldrich, Saint-Louis, MO, USA), according to the manufacturer’s instructions, on a microplate reader at OD 570 nm. The experiment was repeated in triplicate, and data were represented as the mean ± standard deviation (s.d).
# [1] = test system: SSTR2^low PC3_sgPTP1B xenografts; experiment: Small animal PET/CT imaging, tumor uptake in SSTR2^low xenograft; conditions: same mice, i.v. 3–4.4 MBq, 60-min dynamic PET
# [2] = test system: SSTR2^high PC3_VC xenografts; experiment: Small animal PET/CT imaging, tumor uptake in SSTR2^high xenograft; conditions: same mice, i.v. 3–4.4 MBq, 60-min dynamic PET
# human cathepsin B = target: T1, human cathepsin B (Homo sapiens, UniProt P07858); experiment: In vitro cathepsin-B-mediated release assay; assay type: in vitro ADME; conditions: 37 °C, 1 h
# T1 construct: purchased Sino Biological Inc
# Procedure: A comparative cathepsin-B-mediated release assay was performed with compound 13 in the presence vs. absence of human cathepsin B (Sino Biological Inc., Chesterbrook, PA, USA). Briefly, compound 13 (150 µg) was dissolved in 60 µL of 100 mM citrate buffer (pH 5.5), followed by adding 300 µg of cysteine. Then, 20 µg of human cathepsin B in 40 µL of 100 mM citrate buffer was added to the mixture and incubated at 37 °C for 1 h. At the end of the incubation, the solution (20 µL) was sampled for HPLC and LC–MS analysis. Controls of this assay included compound 13 without being exposed to cathepsin B, as well as cathepsin B itself processed under the same conditions.
# [3] = test system: SSTR2^high AR42J and SSTR2^low PC3-Flu cells; experiment: SSTR2-selective cell uptake assay; assay type: cell-based; conditions: 1 h incubation at r.t., binding buffer (20 mM tris, 150 mM NaCl, pH 7.4), ~7.1 × 10^5 CPM, gamma counting, uptake in SSTR2^low cells set at 1, n = 3
# SSTR2^high AR42J cells = experiment: Internalization assay; assay type: cell-based; conditions: after 60 min, ~5 × 10^5 CPM, acid strip (glycine pH 3.0), gamma counting, n = 3
molecule,measurement,setting,value
"CCCCCCCCc1ccc(CCC(CO)(CO)NC(=O)OCc2ccc(NC(=O)[C@H](CCCNC(N)=O)NC(=O)[C@@H](NC(=O)CCOCCOCCOCCN=[N+]=[N-])C(C)C)cc2)cc1 [Compound 10, Val-Cit-pABOC-FTY720]",pEC50,PC3 cells; 48 h incubation,< 4.82
same,pEC50,PC3 cells; 72 h incubation,< 4.82
"CCCCCCCCc1ccc(CCC(N)(CO)CO)cc1 [FTY720, fingolimod, reference compound]",pEC50,"PC3 cells; Homo sapiens, PC-3, 48 h incubation",~5.30
same,pEC50,"PC3 cells; Homo sapiens, PC-3, 72 h incubation",~5.30
O=C([O-])CN(CCN(CC(=O)[O-])Cc1cc(CCC(=O)NCCCCCC(=O)NCCCC[C@H](NC(=O)N[C@@H](CCC(=O)O)C(=O)O)C(=O)O)ccc1[O-])Cc1cc(CCC(=O)O)ccc1[O-].[68Ga+3].[OH3+] [[^68Ga]Ga-PSMA-11],tumor uptake in SSTR2^low PC3_sgPTP1B tumors (in words),[1],low uptake
same,tumor uptake in SSTR2^high PC3-VC tumors (in words),[2],low uptake
DOTA-PEG3-TZ(PEG4-Octr)-PEG2-Trz-PEG3-Val-Cit-pABOC-FTY720 (disulfide) [Compound 13],cathepsin-B-mediated release of FTY720,"human cathepsin B; 150 µg compound, 20 µg human cathepsin B, 100 mM citrate buffer pH 5.5, cysteine, HPLC and LC-MS read-out",cathepsin-B-mediated release of FTY720 was further confirmed
same,release of FTY720 in the absence of cathepsin B (control),"human cathepsin B; same conditions without cathepsin B: 100 mM citrate buffer pH 5.5, cysteine, LC-MS read-out (FTY720 peak 366.0488 [M + 2H2O + Na]+)",the peak of 366.0488 was absent
[^64Cu]Cu-DOTA-PEG3-TZ(PEG4-Octr)-PEG2-Trz-PEG3-Val-Cit-pABOC-FTY720 (disulfide),"normalized uptake, accumulation in SSTR2^high AR42J cells relative to SSTR2^low PC3-Flu cells",[3],six-fold higher
same,internalized percentage (Internalized/Total Bound%),SSTR2^high AR42J cells,approximately 40%
